Several values for one entry are separate records, joined by “and”; a condition that tells them apart may be missing. Identical values can stand only once.
C=CC(=O)OCC
viscosity
Conditions | 293.15 K | 298.15 K | 303.15 K | 308.15 K | 313.15 K | 318.15 K
100 kPa | 0.5685 mPa·s | 0.533 mPa·s | 0.5 mPa·s | 0.4643 mPa·s | 0.423 mPa·s | 0.3813 mPa·s
101 kPa | 0.5685 mPa·s and 0.573 mPa·s | – | 0.5 mPa·s and 0.504 mPa·s and 0.502 mPa·s | – | 0.423 mPa·s and 0.443 mPa·s and 0.42 mPa·s | 0.3813 mPa·s and 0.421 mPa·s

CC1=CCC(=C(C)C)CC1
101 kPa
Conditions | viscosity [mPa·s]
303.15 K | 1.007
308.15 K | 0.945
313.15 K | 0.884

CCCC(C)C
101.33 kPa
Conditions | viscosity [mPa·s]
298 K | 0.2753
298.15 K | 0.2767

CCCCCC(=O)O.CCCCCC(=O)[O-].CC[NH+](CC)CCO
101 kPa
Conditions | viscosity [mPa·s]
293.15 K | 76.9
298.15 K | 60.01
303.15 K | 47.52
308.15 K | 38.14
313.15 K | 31
318.15 K | 25.48
323.15 K | 21.16

CCCCCCCCCCCCCCCCCCCCCC
Conditions | viscosity [mPa·s]
323.1 K, 101.3 kPa | 4.128

CCCCn1cc[n+](C)c1.F[P-](F)(F)(F)(F)F
viscosity
Conditions | 293.15 K | 293.2 K | 298.15 K | 303.15 K | 308.15 K | 308.19 K | 313.15 K | 318.15 K | 323.15 K
100 kPa | 336.9 mPa·s | 342.7 mPa·s | 256.7 mPa·s | 197.6 mPa·s | 148.3 mPa·s | 144 mPa·s | 112 mPa·s | 87.66 mPa·s | 70.97 mPa·s
101 kPa | 378 mPa·s and 249.5 mPa·s and 265.2 mPa·s | – | – | 187.6 mPa·s and 136 mPa·s and 165.7 mPa·s | 101.5 mPa·s and 133.9 mPa·s | – | 129.7 mPa·s and 79.01 mPa·s and 110.8 mPa·s | 93.5 mPa·s and 62.4 mPa·s and 95.75 mPa·s | 88.51 mPa·s and 47.7 mPa·s

CCO
Conditions | viscosity
293.61 K, 100 kPa | 1.18 mPa·s
293.91 K, 100 kPa | 1.17 mPa·s
294.21 K, 100 kPa | 1.17 mPa·s
294.52 K, 100 kPa | 1.16 mPa·s
294.82 K, 100 kPa | 1.16 mPa·s
295.12 K, 100 kPa | 1.15 mPa·s
295.42 K, 100 kPa | 1.15 mPa·s
295.73 K, 100 kPa | 1.14 mPa·s
296.03 K, 100 kPa | 1.14 mPa·s
296.33 K, 100 kPa | 1.13 mPa·s
296.64 K, 100 kPa | 1.13 mPa·s
296.94 K, 100 kPa | 1.12 mPa·s
297.24 K, 100 kPa | 1.12 mPa·s
298.15 K, 101 kPa | 1.03 mPa·s
299.06 K, 100 kPa | 1.08 mPa·s
299.36 K, 100 kPa | 1.08 mPa·s
299.67 K, 100 kPa | 1.07 mPa·s
299.97 K, 100 kPa | 1.07 mPa·s
300.27 K, 100 kPa | 1.06 mPa·s
300.58 K, 100 kPa | 1.06 mPa·s
300.88 K, 100 kPa | 1.05 mPa·s
301.18 K, 100 kPa | 1.05 mPa·s
301.48 K, 100 kPa | 1.04 mPa·s
301.79 K, 100 kPa | 1.04 mPa·s
302.09 K, 100 kPa | 1.03 mPa·s
302.39 K, 100 kPa | 1.03 mPa·s
303.15 K, 100 kPa | 0.989 mPa·s
303.15 K, 101.33 kPa | 0.988 mPa·s
303.61 K, 100 kPa | 1.01 mPa·s
303.91 K, 100 kPa | 1 mPa·s
304.21 K, 100 kPa | 1 mPa·s
304.52 K, 100 kPa | 0.99 mPa·s
304.82 K, 100 kPa | 0.99 mPa·s
305.12 K, 100 kPa | 0.98 mPa·s
305.42 K, 100 kPa | 0.98 mPa·s
305.73 K, 100 kPa | 0.97 mPa·s
306.03 K, 100 kPa | 0.97 mPa·s
306.33 K, 100 kPa | 0.96 mPa·s
306.64 K, 100 kPa | 0.96 mPa·s
306.94 K, 100 kPa | 0.95 mPa·s
307.24 K, 100 kPa | 0.95 mPa·s
307.55 K, 100 kPa | 0.94 mPa·s
307.85 K, 100 kPa | 0.94 mPa·s
308.15 K, 100 kPa | 0.93 mPa·s
308.45 K, 100 kPa | 0.93 mPa·s
308.76 K, 100 kPa | 0.92 mPa·s
309.06 K, 100 kPa | 0.92 mPa·s
309.36 K, 100 kPa | 0.91 mPa·s
309.67 K, 100 kPa | 0.91 mPa·s
309.97 K, 100 kPa | 0.9 mPa·s
310.27 K, 100 kPa | 0.9 mPa·s
310.58 K, 100 kPa | 0.89 mPa·s
310.88 K, 100 kPa | 0.89 mPa·s
311.18 K, 100 kPa | 0.88 mPa·s
311.48 K, 100 kPa | 0.88 mPa·s
313.15 K, 100 kPa | 0.8179 mPa·s and 0.82 mPa·s
313.15 K, 101.32 kPa | 0.835 mPa·s
318.15 K, 100 kPa | 0.75 mPa·s
323 K, 101.33 kPa | 0.673 mPa·s and 0.673 mPa·s
323.15 K, 101.32 kPa | 0.702 mPa·s

CCOP(=O)(OCC)OCC
Conditions | viscosity [mPa·s]
298.15 K, 101.3 kPa | 1.503

CCc1ccccc1
Conditions | viscosity
298 K, 101 kPa | 0.6295 mPa·s
298.15 K, 101 kPa | 0.6076 mPa·s and 0.631 mPa·s
298.15 K, 101.3 kPa | 0.657 mPa·s
298.15 K, 101.33 kPa | 0.625 mPa·s
303 K, 101.33 kPa | 0.574 mPa·s
303.15 K, 100 kPa | 0.592 mPa·s
303.15 K, 101 kPa | 0.5916 mPa·s
303.15 K, 101.33 kPa | 0.584 mPa·s
308.15 K, 100 kPa | 0.56 mPa·s
308.15 K, 101.33 kPa | 0.5797 mPa·s and 0.56 mPa·s
313 K, 101.33 kPa | 0.513 mPa·s
313.15 K, 100 kPa | 0.53 mPa·s
313.15 K, 101.33 kPa | 0.531 mPa·s
318.15 K, 100 kPa | 0.503 mPa·s
318.15 K, 101.33 kPa | 0.502 mPa·s and 0.5038 mPa·s
323 K, 101.33 kPa | 0.464 mPa·s
323.15 K, 100 kPa | 0.478 mPa·s
323.15 K, 101.33 kPa | 0.474 mPa·s

COC(C)(C)C
viscosity
Conditions | 293.15 K | 298.15 K | 303.15 K | 308.15 K | 313.15 K | 318.15 K | 323.15 K
100 kPa | 0.345 mPa·s | 0.32 mPa·s | 0.297 mPa·s | 0.275 mPa·s | 0.252 mPa·s | 0.231 mPa·s | 0.206 mPa·s
101 kPa | 0.387 mPa·s and 0.371 mPa·s | 0.374 mPa·s and 0.3558 mPa·s and 0.348 mPa·s | – | 0.341 mPa·s and 0.3245 mPa·s | 0.321 mPa·s | 0.297 mPa·s | 0.276 mPa·s
101.33 kPa | 0.3861 mPa·s and 0.3861 mPa·s | 0.3687 mPa·s and 0.3687 mPa·s and 0.3353 mPa·s | 0.3163 mPa·s | – | 0.2876 mPa·s | – | –

COCCOCCOCCOCCOC
viscosity
Conditions | 293.15 K | 298 K | 298.15 K | 303.15 K | 308.15 K | 318.15 K | 323.15 K
101 kPa | 3.795 mPa·s | 3.295 mPa·s | – | 2.955 mPa·s | 2.646 mPa·s and 2.643 mPa·s and 2.524 mPa·s | 2.168 mPa·s and 2.11 mPa·s | 1.975 mPa·s
101.33 kPa | – | – | 3.394 mPa·s | – | – | – | –

Clc1ccccc1
Conditions | viscosity
293.15 K, 101 kPa | 0.768 mPa·s and 0.793 mPa·s and 0.8062 mPa·s
293.15 K, 101.33 kPa | 0.806 mPa·s and 0.8522 mPa·s
293.45 K, 101.33 kPa | 0.8265 mPa·s
298.15 K, 101.3 kPa | 0.773 mPa·s
298.15 K, 101.33 kPa | 0.8131 mPa·s and 0.755 mPa·s
299 K, 101 kPa | 1.182 mPa·s
303.15 K, 101.3 kPa | 0.725 mPa·s
303.55 K, 101.33 kPa | 0.743 mPa·s
308.15 K, 101.3 kPa | 0.666 mPa·s and 0.683 mPa·s
312.75 K, 101.33 kPa | 0.6695 mPa·s
313.15 K, 101.33 kPa | 0.6469 mPa·s and 0.639 mPa·s
314.25 K, 101.33 kPa | 0.643 mPa·s
318.15 K, 101 kPa | 0.5629 mPa·s and 0.5924 mPa·s and 0.601 mPa·s
318.15 K, 101.3 kPa | 0.615 mPa·s
318.15 K, 101.33 kPa | 0.607 mPa·s
322.35 K, 101.33 kPa | 0.6069 mPa·s
323.15 K, 101 kPa | 0.5724 mPa·s and 0.5701 mPa·s and 0.566 mPa·s
323.15 K, 101.33 kPa | 0.5724 mPa·s
